Assay results published in EP4663632A1, “COMPOUNDS USEFUL FOR THE MODULATION OF THE ACTIVITY OF STING” (Sulis Therapeutics ApS, priority 2024, dated 2025).

Legend:
STING [1] = biological target: STING (Homo sapiens, UniProt Q86WV6); assay: Western Blot analysis for STING degradation in H1650 cells; type: cell-based; conditions: 0.22 µM, 0.67 µM, 2 µM and 6 µM
Procedure: To assess STING degradation in H596 cells (ATCC, HTB-178) cells were seeded at a density of 100.000 cells/well in 24-well Nunclon Delta surface treated culture plate in RPMI-1640 growth medium (supplemented with 10% FBS, 1% Pen-strep). Cells were incubated over-night at 37°C 5% CO2 to allow adhesion. Next day growth medium was renewed and a 5x concentration of test compounds (2.5% DMSO) diluted in growth medium were added to the appropriate well. Final DMSO concentration was 0.5%. Cell culture plates were returned to the incubator for additional 24h. Final test compound concentrations were 0.22 µM, 0.67 µM, 2 µM and 6 µM.
(§1) For cell lysis, western blotting and data analysis, the methods described above for HFF-1 cells were applied.
Similar protocols were carried out to assess STING degradation in H1650 cells (Figure 1, top panel) and HaCat cells (Figure 1, bottom panel) using Example compounds 14, 16 and 24, except that the seeding density was 150,000 cells/well and 250,000 cells/well for H1650 cells and HaCat cells, respectively.

[2] = biological target: C-terminal domain (CTD) of human STING (Homo sapiens, UniProt Q86WV6); assay: STING binding FP assay II; design: recombinant human STING protein (155-379); conditions: 7 nM STING
C-terminal domain (CTD) of human STING, sequence (Q86WV6 155-379): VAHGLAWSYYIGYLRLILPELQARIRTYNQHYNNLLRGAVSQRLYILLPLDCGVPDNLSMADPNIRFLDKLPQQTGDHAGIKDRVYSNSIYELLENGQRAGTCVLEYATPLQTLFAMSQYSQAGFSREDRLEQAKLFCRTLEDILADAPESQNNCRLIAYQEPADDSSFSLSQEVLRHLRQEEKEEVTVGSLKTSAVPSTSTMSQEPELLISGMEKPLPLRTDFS

STING [3] = biological target: T1, STING (Mus musculus, UniProt Q3TBT3); assay: Western Blot analysis for STING degradation in mouse RAW264.7 cells; type: cell-based; design: endogenous in cells; host or cells: RAW264.7 mouse cells; conditions: 19.5nM to 10 µM, 24 hours
T1 sequence (Q3TBT3 1-378): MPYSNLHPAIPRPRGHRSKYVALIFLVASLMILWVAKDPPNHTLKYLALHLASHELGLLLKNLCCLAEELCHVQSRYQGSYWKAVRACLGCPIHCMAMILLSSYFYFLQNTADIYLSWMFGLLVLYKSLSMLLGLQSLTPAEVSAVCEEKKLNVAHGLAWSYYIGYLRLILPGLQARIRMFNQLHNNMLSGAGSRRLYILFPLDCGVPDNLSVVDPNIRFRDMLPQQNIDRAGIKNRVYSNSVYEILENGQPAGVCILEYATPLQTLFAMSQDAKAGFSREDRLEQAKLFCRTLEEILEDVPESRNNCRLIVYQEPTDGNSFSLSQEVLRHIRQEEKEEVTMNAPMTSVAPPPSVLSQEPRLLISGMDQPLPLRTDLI
Procedure: To assess STING degradation in RAW264.7 cells, cells were seeded at a density of 60.000 cells/well in 24-well Nunclon Delta surface treated culture plate in RPMI-1640 growth medium (supplemented with 10% FBS, 1% Pen-strep). Cells were incubated over-night at 37°C 5% CO2 to allow adhesion. Next day growth medium was renewed and a 5x concentration of test compounds (2.5% DMSO) diluted in growth medium were added to the appropriate well. Final DMSO concentration was 0.5%. Cells were treated with a titration of test compound from 19.5nM to 10 µM 24 hours prior to cells lysis and subsequently analyzed by WB using anti-STING (1:1000) and anti-VCL (1:1000) antibodies. Controls included UT (DMSO) and 1.8µM diABZI treated cells.
as §1

STING [4] = biological target: T1, STING; assay: IFN-β secretion from mouse RAW264.7 cells treated with diABZI; type: cell-based; design: endogenous in cells; host or cells: RAW264.7 mouse cells; conditions: 1.8 µM diABZI c3 and 0.05 µM Example compound
Procedure: As expected, RAW264.7 cells treated with 1.8 µM diABZI c3 increased IFN-β secretion, resulting in a media concentration of around 1000 pg/mL. In contrast, cells treated with 1.8 µM diABZI c3 and 0.05 µM Example compounds 14, 16 or 24 reduced this expression to approximately 500 pg/mL.

STING (Homo sapiens, UniProt Q86WV6), sequence (Q86WV6 whole entry): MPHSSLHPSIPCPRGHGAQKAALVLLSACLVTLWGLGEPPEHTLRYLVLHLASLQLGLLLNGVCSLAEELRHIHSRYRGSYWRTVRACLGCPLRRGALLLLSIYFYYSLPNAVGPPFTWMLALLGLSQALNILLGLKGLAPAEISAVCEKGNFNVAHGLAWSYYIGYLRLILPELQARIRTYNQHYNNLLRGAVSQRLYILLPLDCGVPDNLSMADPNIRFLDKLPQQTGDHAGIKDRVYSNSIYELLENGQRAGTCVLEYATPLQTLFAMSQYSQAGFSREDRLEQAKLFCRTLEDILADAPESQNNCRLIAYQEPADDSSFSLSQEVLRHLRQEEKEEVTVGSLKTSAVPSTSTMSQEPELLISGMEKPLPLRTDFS

IC50 [2] [nM] | STING degradation (Western Blot, Figure 2) (STING [3]) | IFN-β media concentration (STING [4]) | SMILES | STING degradation (Western Blot, Figure 1) (STING [1])
5.7 | dose-dependent STING degradation | approximately 500 pg/mL | CCn1nc(C)cc1C(=O)N=c1n(C)c2cc(C(N)=O)ccc2n1CCC(CCn1c(=NC(=O)c2cc(C)nn2CC)n(C)c2cc(C(N)=O)ccc21)OCC(=O)NCCOCCOCCOCCOCCC(=O)NCCOCCOCCOCCOCC(=O)N[C@H](C(=O)N1C[C@H](O)C[C@H]1C(=O)NCc1ccc(-c2scnc2C)cc1)C(C)(C)C (some centres unmarked) [Example 14] | inducing visible degradation in H1650 and H596 at the higher concentrations tested
4.5 | dose-dependent STING degradation | approximately 500 pg/mL | CCn1nc(C)cc1C(=O)N=c1n(C)c2cc(C(N)=O)ccc2n1CCC(CCn1c(=NC(=O)c2cc(C)nn2CC)n(C)c2cc(C(N)=O)ccc21)OCC(=O)NCCOCCOCCOCCOCCC(=O)NCCOCCOCCOCCOCCNc1cccc2c1C(=O)N(C1CCC(=O)NC1=O)C2=O (centres unmarked) [Example 16] | induced STING degradation in all cell lines tested at all concentrations tested
